Measurements taken from patent US10413541B2, “Oxabicycloheptanes and oxabicycloheptenes for the treatment of depressive and stress disorders” (LIXTE BIOTECHNOLOGY, INC., priority 2015, dated 2019).
“Also recorded” adds a separate entry of the source. Like-named read-outs stand apart in the source and are kept apart here.

Key:
Format in all cases: cell-based, mice
[1] = tested on: GABAB-GIRK currents in LHb neurons; conditions: for I-baclofen, residual current independent of GIRKs: barium 1 mM in the bath
LHb neurons [2] = assay: Cell-attached recording of spontaneous firing of LHb neurons; conditions: baclofen application, then CGP54626 10 μM
Procedure: (§1) Animals were anesthetized with Ketamine/Xylazine (50 mg/10 mg Kg-1 i.p.; Sigma-Aldrich, France). The preparation of LHb-containing brain slices was done in bubbled ice-cold 95% O2/5% CO2-equilibrated solution containing (in mM): cholineCl 110; glucose 25; NaHCO3 25; MgCl2 7; ascorbic acid 11.6; Na+-pyruvate 3.1; KCl 2.5; NaH2PO4 1.25; CaCl2 0.5. Sagittal slices (250 μm) were stored at room temperature in 95% O2/5% CO2-equilibrated artificial cerebrospinal fluid (ACSF) containing (in mM): NaCl 124; NaHCO3 26.2; glucose 11; KCl 2.5; CaCl2 2.5; MgCl2 1.3; NaH2PO4 1. Recordings (flow rate of 2.5 ml/min) were made under an Olympus-BX51 microscope (Olympus, France) at 32° C. Currents were amplified, filtered at 5 kHz and digitized at 20 kHz. Access resistance was monitored by a step of −4 mV (0.1 Hz). Experiments were discarded if the access resistance increased more than 20%.
(§2) The internal solution to measure GABAB-GIRK currents and neuronal excitability contained 140 mM potassium gluconate, 4 mM NaCl, 2 mM MgCl2, 1.1 mM EGTA, 5 mM HEPES, 2 mM Na2ATP, 5 mM sodium creatine phosphate, and 0.6 mM Na3GTP (pH 7.3), with KOH. When we measured the synaptic inhibitory or excitatory release the internal solution contained (in mM): CsCl 130; NaCl 4; MgCl2 2; EGTA 1.1; HEPES 5; Na2ATP 2; Na+-creatine-phosphate 5; Na3GTP 0.6, and spermine 0.1. The liquid junction potential was −3 mV. For cell-attached recordings the internal solution consisted in ACSF.
(§3) Cell-attached recordings in ACSF were performed in GΩ seal with a Vc=0 and Hc=0. Whole-cell voltage clamp recordings were achieved to measure GABAB-GIR currents in presence of Bicuculine (10 μM), NBQX (20 μM) and AP5 (50 μM). […] GABAB-GIRK currents were confirmed by antagonism with either 10 μM of CGP54626, a specific GABAB antagonist or 1 mM Ba^2, a selective inhibitor of inward rectifiers. For the GTPγS experiment, 100 μM of GTPγS was added to the internal solution in place of Na3GTP.

GIRK channels = assay: GTPγS-induced Ba2+-sensitive outward current (I-GTPγS) in LHb neurons of brain slices; conditions: GTPγS 100 μM in the internal solution
Procedure: as §1, §3

LHb neurons [3] = assay: Current-clamp excitability (evoked action potentials, input-output curve) of LHb neurons in slices; conditions: baclofen bath application, saturating dose
Procedure: as §1, §2
For the Okadaic acid (OA) and the CaMKII inhibitor KN93 experiments, respectively 100 nM of OA or 10 μM of KN93 were added in the internal solution. For the PP2A inhibitor LB100 experiments, LB100 (0.1 μM) was applied in the bath. Miniature excitatory postsynaptic currents (mEPSCs) were recorded in voltage-clamp mode at −60 mV in presence of bicuculine (10 μM) and TTX (1 μM). Miniature inhibitory postsynaptic currents (mIPSCs) were recorded (−60 mV) in presence of NBQX (20 μM) and TTX (1 μM). EPSCs and IPSCs were evoked through an ACSF filled monopolar glass electrode placed 200 μm from the recording site in the stria medullaris. AMPA:NMDA ratios of evoked-EPSC were obtained by AMPA-EPSC −60 mV/NMDA-EPSCs at +40 mV. Rectification Index (RI) was computed by […]-60/AMPA-EPSC+40. For the experiments in which high-frequency stimulation trains were used to determine presynaptic release probability, QX314 (5 mM) was included in the internal solution to prevent the generation of sodium spikes. Current-clamp experiments, were performed by a series of current steps (negative to positive) injected to induce action potentials (5-10 pA injection current per step, 800 ms).

[4] = KN93 10 μM intracellular dialysis
[5] = Okadaic acid 100 nM intracellular dialysis

## C[C@H](NC[C@H](O)CP(=O)(O)CC1CCCCC1)c1ccc(Cl)c(Cl)c1 [CGP54626]
[1]; CGP54626 10 μM
  Reversal of I-baclofen: fully reversed; also recorded: readily reversed
LHb neurons [2]; CTRL mice
  Firing rate of LHb neurons: 3.62±0.65 Hz
LHb neurons [2]; FsE mice
  Firing rate of LHb neurons: 8.23±2.25 Hz

## Nc1nc2c(ncn2[C@@H]2O[C@H](COP(=O)(O)OP(=O)(O)OP(O)(O)=S)[C@@H](O)[C@H]2O)c(=O)[nH]1 [GTPγS, reference compound]
GIRK channels; CTRL mice
  GTPγS-evoked Ba2+-sensitive outward current: 92.55±21.83 pA
GIRK channels; FsE mice
  GTPγS-evoked Ba2+-sensitive outward current: 38.00±5.27 pA

## COc1ccc(S(=O)(=O)N(CCO)c2ccccc2CN(C)C/C=C/c2ccc(Cl)cc2)cc1 [KN93]
[1]; KN93 10 μM in the internal solution, CTRL mice
  I-baclofen current: 106.3±18.37 pA
[1]; [4]
  FsE induced reduction of GABAB-GIRK currents: failed to recover; also recorded: does not affect
  I-Baclofen at baseline (control mice): did not affect

## C=C1[C@@H](O)[C@@H]2O[C@]3(CC[C@H](/C=C/[C@@H](C)[C@@H]4CC(C)=C[C@@]5(O[C@H](C[C@@](C)(O)C(=O)O)CC[C@H]5O)O4)O3)CC[C@H]2O[C@@H]1[C@@H](O)C[C@H](C)[C@H]1O[C@@]2(CCCCO2)CC[C@H]1C [Okadaic Acid]
[1]; Okadaic Acid 100 nM in the internal solution, CTRL mice
  I-baclofen current: 130.7±25.25 pA
[1]; Okadaic Acid 100 nM in the internal solution, FsE mice
  I-baclofen current: 120.4±25.61 pA
[1]; Okadaic Acid 100 nM intracellular dialysis, listed as OA
  I-baclofen CTRL vs FsE: comparable to control mice
[1]; [5]
  I-Baclofen at baseline (control mice): comparable to naïve condition
  I-baclofen CTRL vs FsE: no difference between groups

## NCC(CC(=O)O)c1ccc(Cl)cc1 (centres unmarked) [baclofen]
[1]; 1 h after exposure to fox urine (OPE mice)
  I baclofen: 47.4±7.9
[1]; CTRL mice of odor predator exposure paradigm
  I baclofen: 110.5±29.1
[1]; CTRL mice of restraint stress procedure
  I-baclofen: 121.7±14.8
[1]; baclofen 100 μM, FsE mice, 1 hour after
  I-baclofen: 55.4±7.2 pA
[1]; baclofen 100 μM, FsE mice, 1 day after
  I-baclofen: 59.8±9.6 pA
[1]; baclofen 100 μM, FsE mice, 7 days after
  I-baclofen: 40.1±9.0 pA
[1]; baclofen 100 μM, FsE mice, 14 days after
  I-baclofen: 39.6±6.6 pA
[1]; baclofen 100 μM, FsE mice, 30 days after
  I-baclofen: 133.0±26.1 pA
[1]; CTRL mice
  I-baclofen, residual current independent of GIRKs: 21.3±3.7
[1]; FsE mice
  I-baclofen, residual current independent of GIRKs: 21.3±9.1
[1]; restraint stress (RS) mice, 1 h after the procedure
  I-baclofen: 68.3±15.3
LHb neurons [2]; CTRL mice
  Firing rate of LHb neurons: 0.33±0.11 Hz
LHb neurons [2]; FsE mice
  Firing rate of LHb neurons: 4.89±1.40 Hz
LHb neurons [3]; FsE animals
  Firing of LHb neurons evoked by current steps (20 pA): only partially decreased
LHb neurons [3]; control mice
  Firing of LHb neurons evoked by current steps (20 pA): significantly depressed

## [Ba+2] [barium]
[1]; barium 1 mM
  Effect on I-Baclofen: abolished
